The target of one assay is T1, Human IL-17A (Homo sapiens, UniProt Q16552).
T1 sequence (Q16552 20-155 limits assumed): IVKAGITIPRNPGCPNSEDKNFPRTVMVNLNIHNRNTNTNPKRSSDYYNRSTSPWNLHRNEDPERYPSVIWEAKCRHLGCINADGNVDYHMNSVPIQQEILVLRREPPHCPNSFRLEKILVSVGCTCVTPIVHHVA
Kind of assay: Inhibition of human IL-17A protein-induced GROα/CXCL1 production in HT-29 cells. Type of assay: cell-based. The arrangement: purchased R&D 317-ILB; host or cells: added exogenously to HT-29 cells. The conditions noted are these: 30 ng/mL human IL-17A protein, 48 h, GROα in supernatant by ELISA kit, read-out: Inhibitory IC50 of compounds on HT-29 cell GROα/CXCL1. The method, boiled down: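 Compound dilutions were preincubated 1 h at 37 °C with 30 ng/mL human IL-17A, then added to HT-29 cells (5×10^4/well) for 48 h at 37 °C. GROα in supernatant quantified by ELISA; IC50 for inhibition of its production. Positive control: IL-17A antibody at […].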
In general terms: An ELISA detects its analyte on a solid surface through an enzyme-linked reagent.

For the next assay, the target named is T2, Human IL-17AF (Homo sapiens, UniProt Q16552+Q96PD4).
T2 construct: purchased Sino Biological Inc. CT047-H08H
T2 sequence (Q16552 24-155): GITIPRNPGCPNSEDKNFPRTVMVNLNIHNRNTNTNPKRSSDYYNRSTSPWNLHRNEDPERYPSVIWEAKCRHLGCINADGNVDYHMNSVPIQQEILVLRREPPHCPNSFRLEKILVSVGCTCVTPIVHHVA
T2 sequence (Q96PD4 31-163): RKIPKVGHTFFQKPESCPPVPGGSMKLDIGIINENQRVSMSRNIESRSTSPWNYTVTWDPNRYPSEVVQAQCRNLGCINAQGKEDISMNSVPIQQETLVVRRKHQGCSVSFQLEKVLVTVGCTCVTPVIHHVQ
Kind of assay: IL-17AF ELISA (competitive ELISA, IL-17AF/IL-17Ra receptor-ligand binding). The conditions noted are these: human IL-17AF coated plate, human IL-17Ra, read-out: IC50, inhibitory activity of compounds on human IL-17AF. As for the experimental part:
Experiment Example 2 IL-17AF ELISA
The inhibitory effects of human IL-17AF inhibitors on receptor-ligand binding were quantitatively determined by a competitive ELISA.
The ELISA was performed through the following steps.
Human IL-17AF (Sino Biological Inc., Cat #CT047-H08H) was diluted with coating buffer (50 mM PBS, pH 7.4) to reach a concentration of 0.625 μg/ml. 100 μL of the resulting solution was added to each well of a 96-well plate, and the plate was incubated at 37° C. for 30 min. In the blank group, 100 μL of coating buffer was added instead of the IL-17AF solution.
The plate was washed four times with 10 mM PBST (pH 7.4). 200 μL was used per well for each wash. After the final wash, the plate was tapped dry on absorbent paper.
Fresh 5% (w/v) skim milk solution was prepared before the experiment. For example, 5 grams of skim milk powder (Bio-Rad, Cat #170-6404) was completely dissolved in 100 mL of 10 mM PBST. 200 μL of the 5% (w/v) skim milk solution was added to each well, and the plate was incubated on a shaker at 25° C. for 30 min.
(S4) Preparation of 100× to-be-Tested Compound Solutions
During step (S3), the to-be-tested compound solutions were prepared. Each powdered compound was dissolved in dimethyl sulfoxide (DMSO) to reach a stock concentration of 10 mM. The to-be-tested compound solutions were then serially diluted four-fold with DMSO to obtain nine concentrations ranging from […].
(S6) Pre-Incubation of IL-17AF with to-be-Tested Compound Solutions
89 μL of PBST and 1 μL of each of the to-be-tested compound solutions were added to each well and mixed. The plate was pre-incubated at 25° C. for 10 min. In the blank group and the control group, 1 μL of DMSO was added instead of the to-be-tested compound solutions.
(S7) Incubation with Human IL-17Ra
10 μL of 100 nM IL-17Ra (Sino Biological Inc., Cat #10895-H03H) was added to each well, followed by incubation on a shaker at 25° C. for 30 min. The receptor solution was prepared in 10 mM PBST.
(S9) Incubation with Horseradish Peroxidase-Conjugated Antibody
100 μL of mouse anti-Fc tag HRP-conjugated antibody (Sino Biological Inc., Cat #10702-MM01T-H) was added to each well. The plate was incubated on a shaker at 25° C. for 30 min. The antibody was diluted with 5% (w/v) skim milk solution at 1:5,000 (v/v).
100 μL of TMB substrate solution (BD, Cat #555214) was added to each well. Substrate A and substrate B were freshly mixed at a volume ratio of 1:1 before use. The plate was incubated in the dark at 25° C. for 5-15 min.
(S12) Termination and Detection
The color reaction was terminated by addition of 2.5 M HCl. Absorbance was measured at 450 nm using a BMG PHERStar microplate reader.
(S13) Calculation of Half-Maximal Inhibitory Concentration (IC50)
The relative percent residual activity at each compound concentration was calculated according to Equation 1. The IC50 value of each test compound was then calculated in GraphPad 6 using the equation for log(inhibitor) versus normalized response with variable slope, as shown in Equation 2.
relative percent residual activity (%)=[(absorbance of sample−absorbance of blank group)/(absorbance of control group−absorbance of blank group)]%. Equation 1: […]
The compounds prepared in the Examples were tested for IL-17AF inhibitory activity according to the above method.

From patent publication US20260258050A1, “IMMUNOMODULATOR” (HITGEN INC., priority 2023, published 2026) come the findings set out here.

Consider `Cc1[nH]nc2c1-c1cc(F)c(NC(=O)[C@@H](NC(=O)c3ccnn3C(C)C)C(C3CC3)C3CC3)cc1CN(C(C)C(F)(F)F)C(=O)C2` (mixture of isomers) [compound 173], for which the values for the IC50 at Human IL-17A and at Human IL-17AF were at most 100 nM and 100 to 500 nM, respectively.

Turning to `Cc1[nH]nc2c1-c1cc(F)c(NC(=O)[C@@H](NC(=O)c3ccnn3C(C)C3CC3)C(C3CC3)C3CC3)cc1COCC2` (single isomer, unassigned) [compound 41a], the IC50 is at most 100 nM at Human IL-17A and 100 to 500 nM at Human IL-17AF.

As for `Cc1[nH]nc2c1-c1cc(F)c(NC(=O)[C@@H](NC(=O)c3ccnn3C(C)C3CC3)C(C3CC3)C3CC3)cc1COCC2` (single isomer, unassigned) [compound 41b], the IC50 on Human IL-17A and on Human IL-17AF was at most 100 nM in each case.

Take `Cc1[nH]nc2c1-c1cc(F)c(NC(=O)[C@@H](NC(=O)c3ccnn3C(C)CF)C(C3CC3)C3CC3)cc1COCC2` (single isomer, unassigned) [compound 42a]: the IC50 at Human IL-17A and at Human IL-17AF was at most 100 nM throughout.

For the compound `Cc1[nH]nc2c1-c1cc(F)c(NC(=O)[C@@H](NC(=O)c3ccnn3C(C)CF)C(C3CC3)C3CC3)cc1COCC2` (single isomer, unassigned) [compound 42b], the IC50 on Human IL-17A is 100 to 500 nM; on Human IL-17AF, at most 100 nM.

Turning to `Cc1[nH]nc2c1-c1cc(F)c(NC(=O)[C@@H](NC(=O)c3ccnn3C(C)C)C(C3CC3)C3CC3)cc1CN(C(C)C(F)(F)F)C(=O)C2` (single isomer, unassigned) [compound 186a], the IC50 on Human IL-17A is at most 100 nM; at Human IL-17AF, 100 to 500 nM.

Consider `Cc1[nH]nc2c1-c1cnc(NC(=O)[C@@H](NC(=O)c3ccnn3C(C)C3CC3)C(C3CC3)C3CC3)cc1COCC2` (single isomer, unassigned) [compound 188a], for which the IC50 at Human IL-17A and at Human IL-17AF was 100 to 500 nM throughout.

`Cc1[nH]nc2c1-c1cnc(NC(=O)[C@@H](NC(=O)c3ccnn3C(C)C3CC3)C(C3CC3)C3CC3)cc1COCC2` (single isomer, unassigned) [compound 188b]: the IC50 was at most 100 nM on Human IL-17A and 100 to 500 nM at Human IL-17AF.

In the case of `Cc1[nH]nc2c1-c1cnc(NC(=O)[C@@H](NC(=O)c3ccnn3C(C)CF)C(C3CC3)C3CC3)cc1COCC2` (single isomer, unassigned) [compound 189a], the values for the IC50 at Human IL-17A and at Human IL-17AF were at most 100 nM and 100 to 500 nM, respectively.

In the case of `Cc1[nH]nc2c1-c1cnc(NC(=O)[C@@H](NC(=O)c3ccnn3C(C)CF)C(C3CC3)C3CC3)cc1COCC2` (single isomer, unassigned) [compound 189b], the IC50 on Human IL-17A and at Human IL-17AF was 100 to 500 nM each time.

For `Cc1[nH]nc2c1-c1ccc(NC(=O)[C@@H](NC(=O)c3ccnn3C)C(C3CC3)C3CC3)cc1COCC2` [compound 2], the IC50 was 100 to 500 nM at Human IL-17A and at most 100 nM at Human IL-17AF.

On to `Cc1[nH]nc2c1-c1cc(F)c(NC(=O)[C@@H](NC(=O)c3ccnn3C(C)C)C(C3CC3)C3CC3)cc1COCC2` [compound 15], for which the IC50 on Human IL-17A and on Human IL-17AF was at most 100 nM in each case.

Regarding `CCn1nccc1C(=O)N[C@H](C(=O)Nc1cc2c(cc1F)-c1c(n[nH]c1C)CCOC2)C(C1CC1)C1CC1` [compound 16], the IC50 at Human IL-17A and at Human IL-17AF was 100 to 500 nM each time.

On to `Cc1[nH]nc2c1-c1cc(F)c(NC(=O)[C@@H](NC(=O)c3ccnn3C)C(C3CC3)C3CC3)cc1COCC2` [compound 17], for which the IC50 at Human IL-17A and on Human IL-17AF was 100 to 500 nM each time.

With `Cc1[nH]nc2c1-c1ccc(NC(=O)[C@@H](NC(=O)c3ccnn3C(C)C)C(C3CC3)C3CC3)cc1CN(C)C(=O)C2` [compound 22], the IC50 at Human IL-17A and at Human IL-17AF was at most 100 nM each time.

With `CCn1nccc1C(=O)N[C@H](C(=O)Nc1ccc2c(c1)CN(C)C(=O)Cc1n[nH]c(C)c1-2)C(C1CC1)C1CC1` [compound 23], the IC50 on Human IL-17A and on Human IL-17AF was at most 100 nM each time.

For the compound `Cc1[nH]nc2c1-c1ccc(NC(=O)[C@@H](NC(=O)c3ccnn3C(C)C)C(C3CC3)C3CC3)cc1CNC(=O)C2` [compound 27], the IC50 at Human IL-17A and on Human IL-17AF was 100 to 500 nM each time.

In the case of `CCn1nccc1C(=O)N[C@H](C(=O)Nc1ccc2c(c1)CNC(=O)Cc1n[nH]c(C)c1-2)C(C1CC1)C1CC1` [compound 28], the IC50 on Human IL-17A is 100 to 500 nM; on Human IL-17AF it was at most 100 nM.

As to `CCn1nccc1C(=O)N[C@H](C(=O)Nc1cc2c(cc1F)-c1c(n[nH]c1C)CCOC2)[C@H]1CC[C@H](C)CC1` [compound 46], the values for the IC50 on Human IL-17A and on Human IL-17AF were 100 to 500 nM and at most 100 nM, respectively.

Consider `Cc1[nH]nc2c1-c1cc(F)c(NC(=O)[C@@H](NC(=O)c3ccnn3C(C)C)C3CCCCC3)cc1COCC2` [compound 48], for which the IC50 on Human IL-17A and on Human IL-17AF was 100 to 500 nM in each case.

As to `[2H]C([2H])([2H])C([2H])(n1nccc1C(=O)N[C@H](C(=O)Nc1ccc2c(c1)COCCc1n[nH]c(C)c1-2)C(C1CC1)C1CC1)C([2H])([2H])[2H]` [compound 52], the values for the IC50 on Human IL-17A and at Human IL-17AF were at most 100 nM and 100 to 500 nM, respectively.

As to `[2H]C([2H])([2H])C([2H])(n1nccc1C(=O)N[C@H](C(=O)Nc1cc2c(cn1)-c1c(n[nH]c1C)CCOC2)C(C1CC1)C1CC1)C([2H])([2H])[2H]` [compound 54], the IC50 at Human IL-17A and on Human IL-17AF was at most 100 nM in each case.

On to `COCCCn1nccc1C(=O)N[C@H](C(=O)Nc1cc2c(cc1F)-c1c(n[nH]c1C)CCOC2)C(C1CC1)C1CC1` [compound 58], for which the figures for the IC50 at Human IL-17A and on Human IL-17AF were 100 to 500 nM and at most 100 nM, respectively.

In the case of `Cc1[nH]nc2c1-c1cc(F)c(NC(=O)[C@@H](NC(=O)c3ccnn3CC3CC3)C(C3CC3)C3CC3)cc1COCC2` [compound 59], the IC50 at Human IL-17A and on Human IL-17AF was 100 to 500 nM in each case.

Regarding `Cc1[nH]nc2c1-c1cc(F)c(NC(=O)[C@@H](NC(=O)c3ccnn3CC3CCC3)C(C3CC3)C3CC3)cc1COCC2` [compound 60], the IC50 was 100 to 500 nM at Human IL-17A and at most 100 nM at Human IL-17AF.

Regarding `CSCCn1nccc1C(=O)N[C@H](C(=O)Nc1cc2c(cc1F)-c1c(n[nH]c1C)CCOC2)C(C1CC1)C1CC1` [compound 61], the IC50 at Human IL-17A was 100 to 500 nM; at Human IL-17AF it was at most 100 nM.

As to `CCCn1nccc1C(=O)N[C@H](C(=O)Nc1cc2c(cc1F)-c1c(n[nH]c1C)CCOC2)C(C1CC1)C1CC1` [compound 62], the IC50 on Human IL-17A was 100 to 500 nM; at Human IL-17AF, at most 100 nM.

On to `Cc1[nH]nc2c1-c1cc(F)c(NC(=O)[C@@H](NC(=O)c3ccnn3CCC(F)F)C(C3CC3)C3CC3)cc1COCC2` [compound 65], for which the IC50 at Human IL-17A is 100 to 500 nM; on Human IL-17AF, at most 100 nM.
